From patent publication EP1066315B1 (University of Dundee, priority 1998, dated 2008)
Residues, ends and D or L forms follow the SMILES beside them. *: point of attachment. Fmoc = O=C(OCC1c2ccccc2-c2ccccc21)*

Tests used:
Human B-cell AEP = assay: Digestion of TTCF by human B-cell AEP in the presence of tetrapeptides; type: biochemical; conditions: Fig 3d
Cathepsin S = assay: Hydrolysis of cathepsin S substrate by B cell lysosomal fractions; type: biochemical, human; conditions: Fig 3b
Experimental: The invention will now be described by reference to the following Examples and Figures wherein • Figure 1: Processing of TTCF by a leupeptin-insensitive cysteine endopeptidase activity. (a) TTCF was digested in vitro in the presence of disrupted lysosomes (1-2 µg) in the presence or absence of iodoacetamide (1 mM), leupeptin, E64 or pepstatin (each at 0.1 mg/ml). Digestions were in 0.1 M NH4 acetate at pH 4.5 or Na2HPO4, pH 6.0 or 7.0. After 4 hours at 37°C, the reactions were separated by Tris-tricine SDS-PAGE and stained with Coomassie Blue. (b) Cleavage sites: TTCF digestion products were separated by SDS PAGE and electrophoretically transferred to nitrocellulose membrane. Individual fragments numbered 1-6 were subjected to 5 cycles of Edman degradation. N-terminal sequence obtained is shown in bold following upstream residues from TTCF (tetanus toxin numbering). […] (c) Each fraction was analysed by SDS-PAGE and Western blotting. […] Release of 7-amino-4-methyl coumarin was measured after 10, 20 or 30 minutes. […] At different times the cells were washed, fixed in 0.05 % glutaraldehyde and antigen presentation measured using proliferation of different autologous TTCF-specific T cell clones. c, AEP pre-processing of TTCF speeds antigen presentation. […] Presentation was measured after 60 minutes of antigen pulsing using EBV B cells. […]

C[C@H](NC(=O)OCC1c2ccccc2-c2ccccc21)C(=O)N[C@@H](CCC(=O)O)C(=O)N[C@@H](CC(N)=O)C(=O)N[C@@H](CCCCN)C(N)=O [AENK, Ala-Glu-Asn-Lys-NH] (Fmoc-AENK-NH2)
inhibition of TTCF digestion by human B-cell AEP (Human B-cell AEP): inhibited
hydrolysis of the Cathepsin S substrate Z-Val-Val-Arg-HNMec (Cathepsin S): had no effect
